Laboratory results taken from the Kinase Knowledgebase extract (Sharma et al. 2016).

How the values were obtained:
[1] = target: PIK3CA (human) (UniProt P42336); test: Enzyme Assay
[2] = target: PIK3CD (Human) (UniProt O00329); test: Enzyme Assay
[3] = target: PIK3CG (human) (UniProt P48736); test: Enzyme Assay
[4] = target: PIK3CA (human) (UniProt P42336); test: Cell-Based Assay; conditions: rat-1
[5] = target: PIK3CD (Human) (UniProt O00329); test: Cell-Based Assay; conditions: rat-1

Sequence of PIK3CA (human) (P42336 whole entry, looked up): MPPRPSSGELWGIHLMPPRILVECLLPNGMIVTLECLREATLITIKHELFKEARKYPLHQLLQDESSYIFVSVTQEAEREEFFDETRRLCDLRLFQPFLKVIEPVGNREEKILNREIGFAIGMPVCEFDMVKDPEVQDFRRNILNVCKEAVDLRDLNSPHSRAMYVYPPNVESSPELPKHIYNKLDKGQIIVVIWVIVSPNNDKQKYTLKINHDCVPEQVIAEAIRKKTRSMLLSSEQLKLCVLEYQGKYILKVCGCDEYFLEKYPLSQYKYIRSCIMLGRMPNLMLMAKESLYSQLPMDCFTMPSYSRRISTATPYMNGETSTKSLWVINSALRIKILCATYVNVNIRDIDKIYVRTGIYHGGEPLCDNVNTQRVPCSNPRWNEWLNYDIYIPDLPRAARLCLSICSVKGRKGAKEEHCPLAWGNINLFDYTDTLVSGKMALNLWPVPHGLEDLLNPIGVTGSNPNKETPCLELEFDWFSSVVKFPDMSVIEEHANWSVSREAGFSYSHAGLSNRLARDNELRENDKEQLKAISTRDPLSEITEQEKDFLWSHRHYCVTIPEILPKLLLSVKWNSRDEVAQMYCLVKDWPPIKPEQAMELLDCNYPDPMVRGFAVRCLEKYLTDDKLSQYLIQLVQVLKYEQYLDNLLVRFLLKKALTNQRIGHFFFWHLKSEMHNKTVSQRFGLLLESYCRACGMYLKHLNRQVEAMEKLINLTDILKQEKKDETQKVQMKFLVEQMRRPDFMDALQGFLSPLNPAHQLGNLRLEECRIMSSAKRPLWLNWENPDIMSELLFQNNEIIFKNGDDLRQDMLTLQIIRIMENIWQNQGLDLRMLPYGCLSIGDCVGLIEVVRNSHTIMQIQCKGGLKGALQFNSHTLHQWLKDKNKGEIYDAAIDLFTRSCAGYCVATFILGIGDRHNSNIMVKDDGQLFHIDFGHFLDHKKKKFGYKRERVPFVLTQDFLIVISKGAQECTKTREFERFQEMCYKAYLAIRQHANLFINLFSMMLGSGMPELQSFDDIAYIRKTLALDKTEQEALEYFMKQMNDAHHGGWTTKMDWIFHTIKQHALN
Sequence of PIK3CG (human) (P48736 whole entry, looked up): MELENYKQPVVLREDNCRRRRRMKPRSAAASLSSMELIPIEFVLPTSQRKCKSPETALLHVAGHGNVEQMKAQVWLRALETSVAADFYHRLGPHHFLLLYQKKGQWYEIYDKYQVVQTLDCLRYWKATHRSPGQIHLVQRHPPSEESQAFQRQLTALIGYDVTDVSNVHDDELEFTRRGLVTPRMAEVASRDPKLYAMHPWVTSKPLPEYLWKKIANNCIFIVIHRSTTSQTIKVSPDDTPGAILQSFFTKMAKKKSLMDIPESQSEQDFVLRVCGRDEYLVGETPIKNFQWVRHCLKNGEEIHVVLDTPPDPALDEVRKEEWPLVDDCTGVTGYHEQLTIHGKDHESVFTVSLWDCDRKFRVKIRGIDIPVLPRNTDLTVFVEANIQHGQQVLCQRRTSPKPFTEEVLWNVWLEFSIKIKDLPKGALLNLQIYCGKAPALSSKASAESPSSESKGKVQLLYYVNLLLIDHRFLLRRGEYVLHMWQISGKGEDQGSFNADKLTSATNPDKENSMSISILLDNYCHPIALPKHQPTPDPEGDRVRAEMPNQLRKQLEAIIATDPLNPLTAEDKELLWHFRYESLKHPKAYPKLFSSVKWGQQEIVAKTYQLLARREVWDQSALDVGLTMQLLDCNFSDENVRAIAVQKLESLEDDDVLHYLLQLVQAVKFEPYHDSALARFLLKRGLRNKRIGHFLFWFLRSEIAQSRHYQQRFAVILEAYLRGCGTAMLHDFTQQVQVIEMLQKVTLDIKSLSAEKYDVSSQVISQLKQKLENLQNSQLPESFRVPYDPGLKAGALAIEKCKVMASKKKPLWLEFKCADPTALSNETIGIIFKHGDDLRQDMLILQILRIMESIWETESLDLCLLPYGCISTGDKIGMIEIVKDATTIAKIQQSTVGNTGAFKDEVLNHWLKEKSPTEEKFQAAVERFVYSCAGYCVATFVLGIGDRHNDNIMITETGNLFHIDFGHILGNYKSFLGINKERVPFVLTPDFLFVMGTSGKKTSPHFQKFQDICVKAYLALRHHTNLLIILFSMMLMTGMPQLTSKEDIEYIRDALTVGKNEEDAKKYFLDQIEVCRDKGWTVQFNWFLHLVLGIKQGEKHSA
Sequence of PIK3CD (Human) (O00329 whole entry, looked up): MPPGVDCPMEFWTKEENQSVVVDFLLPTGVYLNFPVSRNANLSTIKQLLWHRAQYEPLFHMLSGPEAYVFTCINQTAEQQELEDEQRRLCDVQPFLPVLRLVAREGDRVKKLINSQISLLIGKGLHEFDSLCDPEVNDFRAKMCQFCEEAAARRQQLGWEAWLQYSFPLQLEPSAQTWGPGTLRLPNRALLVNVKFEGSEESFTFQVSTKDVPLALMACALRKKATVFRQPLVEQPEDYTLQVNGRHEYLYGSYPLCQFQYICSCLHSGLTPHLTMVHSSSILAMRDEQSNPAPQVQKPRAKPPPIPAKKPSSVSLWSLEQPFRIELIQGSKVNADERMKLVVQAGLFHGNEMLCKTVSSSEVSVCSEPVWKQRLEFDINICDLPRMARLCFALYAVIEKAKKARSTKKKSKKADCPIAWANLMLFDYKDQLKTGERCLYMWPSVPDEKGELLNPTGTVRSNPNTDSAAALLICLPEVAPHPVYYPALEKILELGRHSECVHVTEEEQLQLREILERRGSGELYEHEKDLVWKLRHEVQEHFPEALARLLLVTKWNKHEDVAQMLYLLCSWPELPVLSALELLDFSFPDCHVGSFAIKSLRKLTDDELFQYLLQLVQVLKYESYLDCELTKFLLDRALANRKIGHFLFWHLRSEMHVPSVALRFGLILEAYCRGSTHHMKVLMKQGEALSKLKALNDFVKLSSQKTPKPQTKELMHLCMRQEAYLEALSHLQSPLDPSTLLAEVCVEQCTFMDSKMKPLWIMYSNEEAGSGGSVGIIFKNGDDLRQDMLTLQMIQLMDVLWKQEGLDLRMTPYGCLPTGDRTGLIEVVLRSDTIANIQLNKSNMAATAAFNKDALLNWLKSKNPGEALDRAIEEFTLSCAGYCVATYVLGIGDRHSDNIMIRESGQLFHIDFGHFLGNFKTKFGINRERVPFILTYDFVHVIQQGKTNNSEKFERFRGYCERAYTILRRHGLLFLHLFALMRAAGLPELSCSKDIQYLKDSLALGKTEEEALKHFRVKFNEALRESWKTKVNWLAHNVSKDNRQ

Structure (SMILES) | IC50 [1] [nM] | IC50 [2] [nM] | IC50 [3] [nM] | IC50 [4] [nM] | IC50 [5] [nM]
Cc1nc(N)nc(N2CCC[C@H]2c2nc3cccc(Cl)c3c(=O)n2C2CC2)c1C#N | 930 | 31 | 110 | 1160 | 61
O=c1c2c(Cl)cccc2nc([C@@H]2CCCN2c2ncnc3[nH]cnc23)n1N1CCOCC1 | 2800 | 35 | 140 | > 10000 | 80
Nc1nc(N2CCC[C@H]2c2nc3cc(F)cc(F)c3c(=O)n2-c2ccccc2)c2nc[nH]c2n1 | > 10000 | 150 | 4300 | > 10000 | 318
N#Cc1c(N)ncnc1N1CCC[C@H]1c1nc2cccc(Cl)c2c(=O)n1C1CCOCC1 | 4700 | 8 | 280 | > 10000 | 36
N#Cc1cnc(N)nc1N1CCC[C@H]1c1nc2cccc(C(F)(F)F)c2c(=O)n1-c1ccccc1 | 3100 | 23 | 230 | > 10000 | < 3
N#Cc1c(N)ncnc1N1CCC[C@H]1c1nc2ccc(F)c(F)c2c(=O)n1-c1ccccc1 | 5550 | 90 | 2300 | > 10000 | < 3
O=c1c2c(Cl)cccc2nc([C@@H]2CCON2c2ncnc3scnc23)n1-c1ccccc1 | 1500 | 7 | 81 | 5990 | 57
CO[C@H]1C[C@@H](c2nc3cccc(Cl)c3c(=O)n2C2CC2)N(c2nc(N)nc(C)c2C#N)C1 | 1320 | 104 | 220 | 3540 | 73
COc1ccc(-n2c([C@@H]3CCCN3c3ncnc(N)c3C#N)nc3cccc(Cl)c3c2=O)cn1 | > 10000 | 240 | 460 | > 10000 | 152
CO[C@H]1C[C@@H](c2nc3cccc(Cl)c3c(=O)n2N2CCOCC2)N(c2nc(N)nc(C)c2C#N)C1 | 1230 | 23 | 53 | > 10000 | 29
O=c1c2c(Cl)cccc2nc([C@@H]2CSCN2c2ncnc3[nH]cnc23)n1-c1ccccc1C1CC1 | 7900 | 21 | 340 | 7140 | 142
O=c1c2c(Cl)cccc2nc([C@@H]2CCCN2c2ncnn3ccnc23)n1-c1ccccc1 | 4670 | 34 | 103 | 5150 | 56
CO[C@H]1C[C@@H](c2nc3cccc(Cl)c3c(=O)n2N2CCOCC2)N(c2ncnc(N)c2C#N)C1 | 4000 | 66 | 380 | > 10000 | 32
CN(C)n1c([C@@H]2CCCN2c2ncnc(N)c2C#N)nc2cccc(Cl)c2c1=O | 1100 | 21 | 190 | 3530 | 26
Cn1cnc2c(N3CCC[C@H]3c3nc4cccc(Cl)c4c(=O)n3C3CC3)nc(N)nc21 | 5950 | 1430 | 445 | 5460 | 894
COC(=O)N1CC[C@H](n2c([C@@H]3CCCN3c3ncnc4[nH]cnc34)nc3cccc(Cl)c3c2=O)C1 | 9300 | 440 | > 10000 | > 10000 | 1150
Nc1nc(N2C[C@@H](O)C[C@H]2c2nc3cccc(Cl)c3c(=O)n2-c2ccccc2)c2nccn2n1 | 1000 | 15 | 31 | – | –
CC1(n2c([C@@H]3CCCN3c3nc(N)nc4[nH]cnc34)nc3cccc(Cl)c3c2=O)CC1 | 1030 | 26 | 58 | 3300 | 32
CN(C)n1c([C@@H]2CCCN2c2ncnc3[nH]cnc23)nc2cccc(Cl)c2c1=O | 2000 | 89 | 320 | 7680 | 109
Cc1nc(N)nc(N2CCC[C@H]2c2nc3cccc(C(F)(F)F)c3c(=O)n2-c2ccccc2)c1C#N | 460 | 5 | 46 | 210 | 37
N#Cc1c(N)ncnc1N1CCC[C@H]1c1nc2cccc(Cl)c2c(=O)n1C1CCCCC1 | > 10000 | 16 | 1100 | > 10000 | 13
Cn1nccc1-n1c([C@@H]2CSCN2c2ncnc3[nH]cnc23)nc2cccc(Cl)c2c1=O | – | 56 | 420 | > 10000 | 222
O=c1c2c(Cl)cccc2nc([C@@H]2CCCN2c2ncnc3[nH]cnc23)n1C1CCOCC1 | 4550 | 59 | 295 | > 10000 | 179
Cc1nc(N)nc(N2CCC[C@H]2c2nc3cccc(OC(F)F)c3c(=O)n2-c2ccccc2)c1C#N | 340 | 9 | 70 | > 10000 | 77

Structure (SMILES) | IC50 [1] [nM] | IC50 [2] [nM] | IC50 [3] [nM] | IC50 [4] [nM] | IC50 [5] [nM]
Cc1nc(N)c(C#N)c(N2CCC[C@H]2c2nc3cccc(C(F)(F)F)c3c(=O)n2-c2ccccc2)n1 | > 10000 | 43 | > 10000 | > 10000 | > 10000
O=c1c2c(Cl)cccc2nc([C@@H]2CCCN2c2ncnc3[nH]cnc23)n1-c1cccnc1 | 3300 | 20 | 170 | > 10000 | 84
CS(=O)(=O)N1CC[C@@H](n2c([C@@H]3CCCN3c3ncnc4[nH]cnc34)nc3cccc(Cl)c3c2=O)C1 | > 10000 | 210 | 3700 | > 10000 | –
O=c1c2c(Cl)cccc2nc([C@@H]2CCON2c2ncnc3[nH]cnc23)n1-c1ccccc1 | – | 150 | 980 | > 10000 | 1810
N#Cc1c(N)ncnc1N1CCC[C@H]1c1nc2cccc(Cl)c2c(=O)n1N1CCOCC1 | 1600 | 11 | 200 | > 10000 | 20
Nc1nc(N2CCC[C@H]2c2nc3cccc(Cl)c3c(=O)n2C2CCCCC2)c2nc[nH]c2n1 | 1780 | 24 | 96 | > 10000 | 149
Cc1ccccc1-n1c([C@@H]2CCON2c2ncnc3[nH]cnc23)nc2cccc(Cl)c2c1=O | > 10000 | 100 | 1200 | > 10000 | 2480
Nc1nc(N2CCC[C@H]2c2nc3cccc(Cl)c3c(=O)n2N2CCCCC2)c2nc[nH]c2n1 | 2300 | 12 | 130 | 8580 | 291
N#Cc1c(N)ncnc1N1CCC[C@H]1c1nc2cccc(Cl)c2c(=O)n1N1CCCCC1 | > 10000 | 120 | 3200 | > 10000 | 278
Cc1nc(N)nc(N2CCC[C@H]2c2nc3cccc(Cl)c3c(=O)n2-c2ccccc2)c1C#N | 72 | 7 | 22 | 1110 | 5
N#Cc1c(N)ncnc1N1CCC[C@H]1c1nc2cc(F)cc(F)c2c(=O)n1-c1ccccc1 | > 10000 | 43 | > 10000 | > 10000 | 292
O=c1c2c(Cl)cccc2nc([C@@H]2CSCN2c2ncnc3[nH]cnc23)n1-c1ccccc1 | 2940 | 18 | 202 | > 10000 | 57
Cc1c(F)ccc2nc([C@@H]3CCCN3c3ncnc(N)c3C#N)n(-c3ccccc3)c(=O)c12 | 700 | 11 | 120 | 7160 | 25
N#Cc1c(N)ncnc1N1CCC[C@H]1c1nc2cccc(OC(F)F)c2c(=O)n1-c1ccccc1 | 2400 | 12 | 590 | > 10000 | 166
O=c1c2c(F)cc(F)cc2nc([C@@H]2CCCN2c2ncnc3[nH]cnc23)n1-c1ccccc1 | > 10000 | 120 | > 10000 | > 10000 | 733
COc1ccc(-n2c([C@@H]3CCCN3c3nc(N)nc4[nH]cnc34)nc3cccc(Cl)c3c2=O)cn1 | 8400 | 270 | 220 | > 10000 | 651
Cn1nccc1-n1c([C@@H]2CSCN2c2ncnc(N)c2C#N)nc2cccc(Cl)c2c1=O | > 10000 | 7200 | > 10000 | > 10000 | > 10000
Cc1ccccc1-n1c([C@@H]2CSCN2c2ncnc(N)c2C#N)nc2cccc(Cl)c2c1=O | 6820 | 11 | 148 | 4470 | 38
CC1(n2c([C@@H]3CCCN3c3ncnc4[nH]cnc34)nc3cccc(Cl)c3c2=O)CC1 | 580 | 7 | 490 | 2150 | 7
Cc1nc(N)nc(N2CCC[C@H]2c2nc3ccc(F)c(C)c3c(=O)n2-c2ccccc2)c1C#N | 370 | 17 | 49 | 2090 | 42
COc1ccc(-n2c([C@@H]3CCCN3c3ncnc4[nH]cnc34)nc3cccc(Cl)c3c2=O)cn1 | > 10000 | 660 | 1900 | > 10000 | 1400
N#Cc1c(N)ncnc1N1C[C@@H](O)C[C@H]1c1nc2cccc(C(F)(F)F)c2c(=O)n1-c1ccccc1 | 1800 | 8 | 66 | > 10000 | 3
O=c1c2c(Cl)cccc2nc([C@@H]2CCCN2c2ncnc3[nH]cnc23)n1[C@@H]1CCN(S(=O)(=O)C2CC2)C1 | > 10000 | 510 | 5600 | > 10000 | –
